Results: ChEMBL document CHEMBL5346971, “Discovery of the First Irreversible HDAC6 Isoform Selective Inhibitor with Potent Anti-Multiple Myeloma Activity” (J Med Chem, 2023)
Active and inactive are the calls of the source. No cut-off for these calls is given here.

Tests used:
RPMI-8226 [1] = assay: Induction of apoptosis in human RPMI-8226 cells assessed as proportion of viable cells at 0.1 uM incubated for 24 hrs by AnnexinV-FITC/PI staining based flow cytometry (reference value: 84.71%); format: functional, cell-based
[2] = target: T1, Protein deacetylase HDAC6 (Homo sapiens) (UniProt Q9UBN7); assay: Irreversible inhibition of HDAC6 in human A549 cells assessed as acetyl alpha-tubulin level at 0.4 uM incubated for 5 hrs followed by drug wash-out for 24 hrs by western blot analysis relative to control; format: cell-based
T1 sequence (whole entry): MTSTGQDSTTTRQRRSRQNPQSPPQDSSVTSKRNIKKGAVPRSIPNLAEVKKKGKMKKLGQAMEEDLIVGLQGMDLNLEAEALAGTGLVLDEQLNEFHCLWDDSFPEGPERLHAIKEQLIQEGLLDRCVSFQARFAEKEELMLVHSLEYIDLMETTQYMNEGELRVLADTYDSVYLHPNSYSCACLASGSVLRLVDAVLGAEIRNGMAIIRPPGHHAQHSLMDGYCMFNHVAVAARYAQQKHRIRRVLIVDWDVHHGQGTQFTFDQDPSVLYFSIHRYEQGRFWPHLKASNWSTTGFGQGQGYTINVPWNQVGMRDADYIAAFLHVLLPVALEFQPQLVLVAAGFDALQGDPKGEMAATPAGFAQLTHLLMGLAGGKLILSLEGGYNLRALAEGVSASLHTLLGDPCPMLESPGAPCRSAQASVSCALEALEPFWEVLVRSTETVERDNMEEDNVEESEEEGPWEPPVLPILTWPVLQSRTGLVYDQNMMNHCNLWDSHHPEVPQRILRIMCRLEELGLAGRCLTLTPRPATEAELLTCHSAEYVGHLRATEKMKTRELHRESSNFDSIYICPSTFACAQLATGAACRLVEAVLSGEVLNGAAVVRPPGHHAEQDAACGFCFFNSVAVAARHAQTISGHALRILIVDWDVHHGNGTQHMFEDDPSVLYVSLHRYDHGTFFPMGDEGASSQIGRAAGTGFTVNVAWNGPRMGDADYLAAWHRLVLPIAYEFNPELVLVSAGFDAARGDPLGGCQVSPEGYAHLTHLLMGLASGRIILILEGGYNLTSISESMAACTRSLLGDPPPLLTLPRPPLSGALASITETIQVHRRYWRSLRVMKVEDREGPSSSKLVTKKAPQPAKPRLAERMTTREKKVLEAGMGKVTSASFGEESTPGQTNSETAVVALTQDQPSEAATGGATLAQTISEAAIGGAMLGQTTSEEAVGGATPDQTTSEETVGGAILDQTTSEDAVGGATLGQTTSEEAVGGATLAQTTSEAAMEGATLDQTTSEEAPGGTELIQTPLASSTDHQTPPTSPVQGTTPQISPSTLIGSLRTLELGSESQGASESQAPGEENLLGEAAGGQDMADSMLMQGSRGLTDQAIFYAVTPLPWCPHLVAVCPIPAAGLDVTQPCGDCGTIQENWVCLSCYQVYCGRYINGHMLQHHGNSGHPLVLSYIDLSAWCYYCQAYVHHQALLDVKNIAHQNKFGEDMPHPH

[3] = target: Histone deacetylase 3/Nuclear receptor corepressor 2 (HDAC3/NCoR2) (Homo sapiens, UniProt O15379); assay: Inhibition of C-terminal His-tagged human HDAC3 (1 to 428 residues)/N-terminal GST-tagged human NCOR2 (395 to 489 residues) expressed in baculovirus-infected Sf9 cells using Boc-Lys(acetyI)-AMC as substrate preincubated with enzyme for 1 hr followed by substrate addition and measured after 30 mins by fluorescence based analysis
[4] = Toxicity in NCG mouse xenografted with human RPMI-8226 cells assessed as body weight loss at 10 ug administered intratumorally every 2 days; settings: in vivo, other, 48 h, route it(Intratumoral), dose 10 µg
[5] = target: T1, Protein deacetylase HDAC6 (Homo sapiens); settings: A549, dose 80.0 nM, time 5.0 hrs
[6] = target: T2, Class 1 histone deacetylase (Homo sapiens) (UniProt Q13547+O15379+Q92769+Q9BY41); assay: Inhibition of class 1 HDAC in human A549 cells assessed as acetyl histone H4 level at 2 uM incubated for 5 hrs by western blot analysis relative to control; format: cell-based
[7] = target: T2, Class 1 histone deacetylase (Homo sapiens); assay: Irreversible inhibition of class 1 HDAC in human A549 cells assessed as acetyl histone H4 level at 0.4 uM incubated for 5 hrs followed by drug wash-out for 24 hrs by western blot analysis relative to control; format: cell-based
[8] = Cytotoxicity against human L02 cells assessed as inhibition of cell proliferation incubated for 48 hrs by CCK8 assay; format: toxicity, cell-based
[9] = Effect on HDAC6 protein expression in human A549 cells assessed as change in HDAC6 protein expression at 0.4 uM incubated for 5 hrs followed by drug wash-out for 24 hrs by western blot analysis relative to control; format: functional
RPMI-8226 [10] = assay: Induction of apoptosis in human RPMI-8226 cells assessed as proportion of late apoptotic cells at 0.1 uM incubated for 24 hrs by AnnexinV-FITC/PI staining based flow cytometry (reference value: 4.18%); format: functional, cell-based
Histone deacetylase 2 = Histone deacetylase 2 (Homo sapiens, UniProt Q92769); assay: Inhibition of C-terminal FLAG-tagged human full length recombinant HDAC2 (1 to 488 residues) expressed in Sf9 cells using Boc-Lys(acetyI)-AMC as substrate preincubated with enzyme for 1 hr followed by substrate addition and measured after 30 mins by fluorescence based analysis
MM1.S = assay: Antiproliferative activity against human MM1.S cells assessed as inhibition of cell proliferation incubated for 48 hrs by CCK8 assay; format: functional, cell-based
[11] = Half-life in rat liver microsomes in presence of NADPH by LC-MS/MS analysis; format: ADME, Microsome
[12] = target: T2, Class 1 histone deacetylase (Homo sapiens); assay: Irreversible inhibition of class 1 HDAC in human A549 cells assessed as acetyl histone H3 level at 0.4 uM incubated for 5 hrs followed by drug wash-out for 6 hrs by western blot analysis relative to control; format: cell-based
[13] = target: T1, Protein deacetylase HDAC6 (Homo sapiens); assay: Irreversible inhibition of HDAC6 in human A549 cells assessed as acetyl alpha-tubulin level at 0.4 uM incubated for 5 hrs followed by drug wash-out for 1 hr by western blot analysis relative to control; format: cell-based
[14] = Metabolic stability of the compound in human liver microsomes assessed as parent compound remaining measured after 60 mins in presence of NADPH by LC-MS/MS analysis; format: ADME, Microsome; settings: read-out: Stability

T2 sequence (O15379 whole entry, looked up): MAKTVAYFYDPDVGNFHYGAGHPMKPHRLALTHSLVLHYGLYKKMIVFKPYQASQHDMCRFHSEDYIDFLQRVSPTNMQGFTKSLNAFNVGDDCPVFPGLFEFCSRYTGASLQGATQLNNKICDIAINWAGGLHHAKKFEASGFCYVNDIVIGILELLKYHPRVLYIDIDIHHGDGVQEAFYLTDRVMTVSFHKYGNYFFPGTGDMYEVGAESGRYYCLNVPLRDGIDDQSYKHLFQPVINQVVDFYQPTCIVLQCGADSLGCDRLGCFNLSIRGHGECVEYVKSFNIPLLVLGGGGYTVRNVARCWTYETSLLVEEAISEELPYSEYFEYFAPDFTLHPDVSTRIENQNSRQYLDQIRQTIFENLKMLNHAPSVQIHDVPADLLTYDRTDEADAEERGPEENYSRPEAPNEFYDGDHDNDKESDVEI
T2 sequence (Q13547 whole entry, looked up): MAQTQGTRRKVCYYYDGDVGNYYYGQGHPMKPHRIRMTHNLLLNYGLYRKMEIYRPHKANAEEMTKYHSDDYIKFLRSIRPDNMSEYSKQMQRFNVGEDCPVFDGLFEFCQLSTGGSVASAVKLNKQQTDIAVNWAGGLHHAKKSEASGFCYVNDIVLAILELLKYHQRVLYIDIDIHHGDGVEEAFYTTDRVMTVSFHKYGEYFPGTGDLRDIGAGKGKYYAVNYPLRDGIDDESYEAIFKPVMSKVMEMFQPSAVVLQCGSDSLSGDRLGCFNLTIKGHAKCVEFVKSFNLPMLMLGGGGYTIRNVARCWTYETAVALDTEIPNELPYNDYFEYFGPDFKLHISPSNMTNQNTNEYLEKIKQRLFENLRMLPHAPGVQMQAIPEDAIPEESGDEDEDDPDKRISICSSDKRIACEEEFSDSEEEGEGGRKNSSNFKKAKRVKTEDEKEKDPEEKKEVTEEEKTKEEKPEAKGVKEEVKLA
T2 sequence (Q92769 whole entry, looked up): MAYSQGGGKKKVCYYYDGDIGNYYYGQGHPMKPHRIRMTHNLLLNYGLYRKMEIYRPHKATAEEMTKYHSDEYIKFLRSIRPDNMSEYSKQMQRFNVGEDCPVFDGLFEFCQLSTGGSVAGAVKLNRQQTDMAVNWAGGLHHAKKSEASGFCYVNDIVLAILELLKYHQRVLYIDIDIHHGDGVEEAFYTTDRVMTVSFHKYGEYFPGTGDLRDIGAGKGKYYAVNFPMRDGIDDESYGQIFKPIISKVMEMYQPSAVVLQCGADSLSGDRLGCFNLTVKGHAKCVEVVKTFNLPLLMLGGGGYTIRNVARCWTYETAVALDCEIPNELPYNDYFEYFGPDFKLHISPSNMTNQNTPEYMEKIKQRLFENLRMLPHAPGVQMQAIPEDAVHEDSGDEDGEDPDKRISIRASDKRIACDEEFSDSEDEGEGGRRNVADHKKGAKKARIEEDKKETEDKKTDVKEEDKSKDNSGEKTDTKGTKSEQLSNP
T2 sequence (Q9BY41 whole entry, looked up): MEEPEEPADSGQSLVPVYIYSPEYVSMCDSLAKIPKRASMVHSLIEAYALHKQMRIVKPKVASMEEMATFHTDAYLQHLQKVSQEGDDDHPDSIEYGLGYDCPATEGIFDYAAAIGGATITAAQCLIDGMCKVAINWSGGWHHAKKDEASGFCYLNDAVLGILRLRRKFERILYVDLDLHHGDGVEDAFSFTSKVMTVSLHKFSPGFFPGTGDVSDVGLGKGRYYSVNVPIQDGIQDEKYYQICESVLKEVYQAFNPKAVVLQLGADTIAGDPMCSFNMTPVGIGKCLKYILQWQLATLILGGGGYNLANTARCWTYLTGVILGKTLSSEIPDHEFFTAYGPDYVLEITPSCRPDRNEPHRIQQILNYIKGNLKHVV
Sequence of Histone deacetylase 3/Nuclear receptor corepressor 2 (HDAC3/NCoR2) (O15379 whole entry, the tested form may be a part): as the sequence (O15379 whole entry, looked up) above
Sequence of Histone deacetylase 3/Nuclear receptor corepressor 2 (HDAC3/NCoR2) (Q9Y618 whole entry, further chain, the tested form may be a part): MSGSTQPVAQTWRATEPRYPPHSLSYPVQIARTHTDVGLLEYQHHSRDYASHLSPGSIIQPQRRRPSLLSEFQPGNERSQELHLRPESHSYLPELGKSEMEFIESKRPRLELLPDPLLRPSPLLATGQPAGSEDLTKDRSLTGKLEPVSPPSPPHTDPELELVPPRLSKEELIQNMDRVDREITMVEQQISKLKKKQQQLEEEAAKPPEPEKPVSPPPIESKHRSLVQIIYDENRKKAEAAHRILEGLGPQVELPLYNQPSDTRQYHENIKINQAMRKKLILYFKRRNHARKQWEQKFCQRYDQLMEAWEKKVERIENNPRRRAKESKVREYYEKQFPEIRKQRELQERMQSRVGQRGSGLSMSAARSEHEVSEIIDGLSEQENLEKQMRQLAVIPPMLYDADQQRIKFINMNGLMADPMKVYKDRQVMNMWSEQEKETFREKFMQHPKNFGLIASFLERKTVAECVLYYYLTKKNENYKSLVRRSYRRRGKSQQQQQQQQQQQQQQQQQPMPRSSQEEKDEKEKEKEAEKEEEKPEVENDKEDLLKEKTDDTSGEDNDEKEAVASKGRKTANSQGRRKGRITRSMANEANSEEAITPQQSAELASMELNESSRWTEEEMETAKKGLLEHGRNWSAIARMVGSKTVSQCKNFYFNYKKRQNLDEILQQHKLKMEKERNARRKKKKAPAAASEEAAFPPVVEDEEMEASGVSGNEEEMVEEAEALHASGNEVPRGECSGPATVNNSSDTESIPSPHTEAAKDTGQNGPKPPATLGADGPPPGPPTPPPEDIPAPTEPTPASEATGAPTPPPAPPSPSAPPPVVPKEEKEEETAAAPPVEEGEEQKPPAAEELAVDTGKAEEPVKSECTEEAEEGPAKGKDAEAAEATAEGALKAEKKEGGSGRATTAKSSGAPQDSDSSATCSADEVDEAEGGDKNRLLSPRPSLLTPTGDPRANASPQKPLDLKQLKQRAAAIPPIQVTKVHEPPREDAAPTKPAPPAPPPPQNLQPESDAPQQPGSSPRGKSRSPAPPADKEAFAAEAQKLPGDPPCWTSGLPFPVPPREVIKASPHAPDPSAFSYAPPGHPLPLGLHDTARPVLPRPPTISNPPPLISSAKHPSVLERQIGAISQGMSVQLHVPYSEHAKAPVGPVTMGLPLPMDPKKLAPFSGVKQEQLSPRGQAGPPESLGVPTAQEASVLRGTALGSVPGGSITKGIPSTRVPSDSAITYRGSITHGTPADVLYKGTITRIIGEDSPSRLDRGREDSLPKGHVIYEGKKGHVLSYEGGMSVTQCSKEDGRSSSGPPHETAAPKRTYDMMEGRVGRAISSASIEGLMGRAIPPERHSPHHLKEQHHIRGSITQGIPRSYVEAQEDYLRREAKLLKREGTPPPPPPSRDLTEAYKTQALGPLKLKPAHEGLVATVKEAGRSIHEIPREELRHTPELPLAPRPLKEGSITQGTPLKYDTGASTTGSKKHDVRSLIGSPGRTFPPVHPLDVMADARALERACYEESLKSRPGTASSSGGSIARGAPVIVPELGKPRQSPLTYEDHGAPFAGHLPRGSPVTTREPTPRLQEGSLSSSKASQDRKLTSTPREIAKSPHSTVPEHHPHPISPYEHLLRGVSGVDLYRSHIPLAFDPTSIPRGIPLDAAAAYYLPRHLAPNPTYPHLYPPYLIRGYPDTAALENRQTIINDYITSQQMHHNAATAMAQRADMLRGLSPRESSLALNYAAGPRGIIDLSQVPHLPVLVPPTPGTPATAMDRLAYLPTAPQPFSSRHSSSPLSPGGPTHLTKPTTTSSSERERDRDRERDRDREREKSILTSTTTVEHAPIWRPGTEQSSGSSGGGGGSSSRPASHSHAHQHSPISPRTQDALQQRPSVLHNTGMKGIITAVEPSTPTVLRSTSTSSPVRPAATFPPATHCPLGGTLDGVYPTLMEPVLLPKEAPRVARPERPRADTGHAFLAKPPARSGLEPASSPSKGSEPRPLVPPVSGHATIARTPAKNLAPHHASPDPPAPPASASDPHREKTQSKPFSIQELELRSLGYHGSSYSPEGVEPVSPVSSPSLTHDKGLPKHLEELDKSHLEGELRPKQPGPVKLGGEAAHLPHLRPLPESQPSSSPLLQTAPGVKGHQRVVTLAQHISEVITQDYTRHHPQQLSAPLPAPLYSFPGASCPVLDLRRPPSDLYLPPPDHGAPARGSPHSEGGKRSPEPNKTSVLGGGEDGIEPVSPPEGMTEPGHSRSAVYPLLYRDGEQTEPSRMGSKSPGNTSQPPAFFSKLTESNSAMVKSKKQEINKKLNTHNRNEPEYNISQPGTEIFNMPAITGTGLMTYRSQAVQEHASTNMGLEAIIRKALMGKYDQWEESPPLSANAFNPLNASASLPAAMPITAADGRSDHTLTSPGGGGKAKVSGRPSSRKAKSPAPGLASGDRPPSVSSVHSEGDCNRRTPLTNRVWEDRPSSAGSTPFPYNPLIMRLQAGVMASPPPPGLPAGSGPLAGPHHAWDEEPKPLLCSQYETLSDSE
Sequence of Histone deacetylase 2 (Q92769 whole entry, the tested form may be a part): as the sequence (Q92769 whole entry, looked up) above

For `O=C(NO)c1ccc(COc2no[n+]([O-])c2S(=O)(=O)c2ccccc2)cc1`, the Activity (RPMI-8226 [1]) was “Active”, the fold change (FC) [2] was 4.3 and the IC50 [3] was 8.2 µM. The Activity [4] was “Non-Toxic”, the inhibition [5] was “Active” and the fold change (FC) [6] was 1.6. The fold change (FC) [7] was 0.6, the IC50 at 48 h [8] was 8.2 µM and the “fold change (FC)” value [9] was 1.3. The Activity (RPMI-8226 [10]) was “Active”, the IC50 (Histone deacetylase 2) was 1.5 µM and the IC50 (MM1.S) was 0.42 µM. It also gave a half-life [11] of 9.2 min, a fold change (FC) [12] of 1.1 and a fold change (FC) [13] of 5.3. The remaining at 1 h [14] was under 0.33%.
